Measurements as given in US9072729B2, “Method for treating fibrosis and cancer with imidazolium and imidazolinium compounds” (Agency for Science, Technology and Research, priority 2008, dated 2015).

Tests used:
[1] = test system: col1a1, fibronectin, GFAP, SMAA, TGF-β1, TGFβ RI protein expression; experiment: Western blotting of fibrotic marker proteins in HSC T6 cells; assay type: cell-based, rat; conditions: DBZIM 100 μM, TDBZIM 50 μM, 48 h
Protocol: FIG. 8. […] The target proteins were recognized by the respective antibodies, and visualized by the ECL method. The membrane was stripped and re-probed for α-tubulin as the loading control. FIG. 13. […] DPIM (2 mM), EGCG (25 μM) and DBZIM (100 μM) were dissolved in H2O. Alpha-tubulin was used as the loading control. Densitometric measurement of protein band intensity was normalized against the respective vehicle control. (B) Relative densitometric quantification of protein band intensity. The vehicle treated sample was normalized to 1. Protein extracts were prepared by lysing a cell pellet in 10 volumes of boiled 1% sodium dodecyl sulfate (SDS) (90-95° C.) for 10 min for GFAP, or using NE-PER nuclear and cytoplasmic extraction reagents from Pierce (IL, USA) for nuclear proteins, or RIPA (Pierce, Ill., USA) for SMAA, fibronectin, collagen αI(I), TGF-β1 and TGFβ RI. Protein content was quantified using a BCA kit (Pierce, Ill., USA). 15 μg of total protein were resolved in 4-12% gradient SDS/polyacrylamide gel electrophoresis (PAGE) gel, and transferred to a nitrocellular membrane. The membrane was then probed with primary antibodies against GFAP (Dako, Denmark), SMAA (Sigma, USA), procollagen αI(I), fibronectin, c-Jun, c-Fos, JunB, JunD, […] Cruz Biotechnology, CA, USA), NF-κB P65, TGF-β1 and TGFβ RI (Abeam, UK), and detected by horseradish peroxidase-conjugated secondary antibody (Santa Cruz Biotechnology, CA, USA). […] Protein bands were recorded on X-ray film by reacting with ECL chemiluminescence reagents (Amersham Biosciences, NJ, USA). Alpha-tubulin (Abeam, UK) was used as the loading control for total protein, and Tata binding protein (TBP) (Abeam, UK) was used as the loading control for nuclear protein.

[2] = test system: AP-1; experiment: Western blot of AP-1 complex members in nuclear extracts; assay type: cell-based, human; conditions: 24 hr
Protocol: FIG. 28. DBZIM induced up-regulation of AP-1 expression in HepG2 cells. HepG2 cells were treated with DBZIM for 24 hr. Cytoplasmic and nuclear proteins were fractionated using a kit from Pierce. 15 μg of nuclear proteins were resolved in 4-12% gradient PAGE-SDS gel. The target proteins were recognized by their respective antibodies, and visualized by the ECL method. The membrane was stripped and re-probed for Tata binding protein TBP as loading control.
Protein extracts were prepared by lysing cell pellet in RIPA buffer (Pierce, Ill., USA) for total protein extract, or in NE-PER reagent from Pierce (Pierce, Ill., USA) for nuclear and cytoplasmic fractions, or in a Kit from BioVision (CA, USA) for mitochondria and cytosol fractions. Protein content was quantified using BCA Kit (Pierce, Ill., USA). […] The membrane was then probed with primary antibodies against Bcl-XL, Bak, Bcl-2α, Bax (Lab Vision Corp., CA, USA), survivin, xIAP, cIAP (R&D systems Inc., MN, USA), c-Jun, c-Fos, JunB, JunD, Fra-1, Fra-2 (Santa Cruz Biotechnology, CA, USA) respectively, and detected by horseradish peroxidase-conjugated secondary antibody (Santa Cruz Biotechnology, CA, USA). Protein bands were recorded on X-ray film by reacting with ECL chemiluminescence reagents (Amersham Biosciences, NJ, USA). […]

[3] = test system: IMR90; experiment: Cytotoxicity on normal (non-cancerous) lung cells; assay type: cell-based
Protocol: (§1) The IC50 value (determined at day 3) was 50 μM for H1299 (lung cancer); 50 μM for MCF-7 (breast cancer), and 40 μM for AGS gastric cancer at day 3 (Table 3).

[4] = test system: HepG2 cells; experiment: Cell based caspase 3/7 and LDH assays, HepG2; design: species or system human; conditions: HepG2, 6 hr
Protocol: (§2) FIG. 22. […] HLE or HepG2 cells were incubated with DBZIM of various concentrations for 6 hr, and assayed for caspase 3/7 activity and LDH releasing (expressed as % toxicity). DBZIM induced apoptosis as characterized by annexin V staining using flow cytometer in HLE (E) and HepG2 (F). Scatter plot and histogram gave the representative information on the cell population distribution while bar graphs quantified the percentage of apoptotic cells from the histogram. HLE and HepG2 cells were treated by DBZIM of various concentrations for 24 hr before harvesting for annexin V staining and flow cytometric analysis.
(§3) Capspase 3/7 activity and lactate dehydrogenase (LDH) release were measured by Fluorometric assays (Promega Corp., WI, USA). The HCC cells were cultured in 96-well plate and treated with DBZIM of various concentrations for 6 hr before assays. For caspase 3/7 assay, medium was removed and substrate buffer was added to lyse the cell and react with caspase 3/7 to give rise to fluorescence signal which was read at Ex=485 nm and Em=530 nm on a Tecan Safire II plate reader after 1 hr incubation. The caspase 3/7 activity of sample cells with the compound treatment was expressed as relative fold change after normalizing to the control cells. The LDH assay (indicative of membrane integrity) was performed using a Kit from Promega Corp according to manufactor's instructions.

[5] = test system: MCF-7; experiment: Proliferation assay (MTS), breast cancer cell line; assay type: cell-based; conditions: Homo sapiens, MCF7, 72 h; MCF-7 (breast cancer), determined at day 3
Protocol: (§4) Proliferation of Glioma cell lines: U87 MG and C6 under the treatment of DBZIM was examined using 3-(4,5-dimethylthiazol-2-yl)-5-(3-carboxymethoxyphenyl)-2-(4-sulfophenyl)-2H-tetrazolium (MTS) based proliferation assay kit (Promega, Wis., USA). MTS reagent was added to the control and treated cells (after 48 hr) directly and the absorbance signal was read at 490 nm using a Tecan Safire II plate reader.
as §1

[6] = test system: H1299; experiment: Proliferation assay (MTS), lung cancer cell line; assay type: cell-based; conditions: Homo sapiens, NCI-H1299, 72 h, determined at day 3
Protocol: as §4, §1

[7] = test system: HLE cells; experiment: Cell based caspase 3/7 and LDH assays, HLE; design: species or system human; conditions: 6 hr
Protocol: as §2, §3

Compound	SMAA protein expression [1]	procollagen αI(I) and fibronectin protein expression [1]	AP-1 complex members (C-Jun, Jun B, Jun D, Fra-1; not Fra-2) [2]	cytotoxicity on normal lung cells [3]	LDH release [4]	caspase 3/7 activity [4]	IC50 [5]	IC50 [6]	LDH release [7]	caspase 3/7 activity [7]
1,3,5-tris(4-methyl-imidazolium)-linked cyclophane.3Br [TDBZIM]	enhanced	attenuated procollagen αI(I) and fibronectin significantly	–	–	–	–	–	–	–	–
[Br-].c1ccc(Cn2cc[n+](Cc3ccccc3)c2)cc1 [DBZIM, 1,3-bisbenzylimidazolium bromide]	suppressed	attenuated procollagen αI(I) and fibronectin significantly	significantly induced	much less cytotoxicity	least affected	enhanced	50 µM	50 µM	least affected	enhanced
